Reference: US5776935A, “Pyrido-phtalazin diones and their use against neurological disorders associated with excitotoxicity and malfunctioning of glutamatergic neurotransmission” (Merz & Co. GmbH & Co., priority 1996, dated 1998)
Structures can show the parent of a compound that is named as a salt. Where two headings read alike, the source gives them in different places.

Key:
[1] = molecular target: T1, glycineB site of the NMDA receptor (rat cortical membranes) (Rattus norvegicus, UniProt P35439); experiment: [3H]5,7-DCKA binding assay; conditions: 10 nM [3H]5,7-DCKA
T1 construct: The cortex was dissected and homogenised in 20 volumes of ice-cold 0.32M sucrose; from tissue; host or cells: brain cortex membranes of male Sprague-Dawley rats
Procedure: Tissue preparation was performed according to Foster and Wong (1987). Male Sprague-Dawley rats (200-250g) were decapitated and their brains were removed rapidly. The cortex was dissected and homogenised in 20 volumes of ice-cold 0.32M sucrose using a glass-Teflon homogenizer. The homogenate was centrifuged at 1000×g for 10 min. The pellet was discarded and the supernatant centrifuged at 20,000×g for 20 min. The resulting pellet was resuspended in 20 volumes of distilled water and centrifuged for 20 min at 8000×g. Then the supernatant and the buffy coat were centrifuged three times (48,000× g for 20 min) in the presence of 5 mM Tris-HCl, pH 7.4. All centrifugation steps were carried out at 4° C. After resuspension in 5 volumes of 5 mM Tris-HCl, pH 7.4 the membrane suspension was frozen rapidly at -80° C. until the day of assay. On the day of assay the membranes were thawed and washed four times by resuspension in 5 mM Tris-HCl, pH 7.4 and centrifugation at 48,000× g for 20 min. The final pellet was suspended in assay buffer.
The amount of protein in the final membrane preparation was determined according to the method of Lowry (1951) with some modifications (Hartfree, 1972). 50 μl of Protein samples (in triplicates) were diluted to 1 ml with distilled water and treated with 0.9 ml of a solution containing 2 g potassium sodium tartrate and 10 g Na2 CO3 in 500 ml 1N NaOH and 500ml water. Blank and standard (with bovine serum albumin) were set up in the same way. The tubes were placed in a water bath at 50° C. for 10 min. and cooled at room temperature. 100 μl of a solution containing 2 g potassium sodium tartrate and 1 g CuSO4 x 5 H2 O in 90 ml water and 10 ml 1N NaOH were added. The samples were left at room temperature for at least 10 min., then 3 ml of Folin-Ciocalteu reagent (1 ml of reagent diluted with 15 ml water) was added rapidly during mixing. The tubes were again heated at 50° C. for 10 min. and cooled to room temperature. Absorbencies were then read in 1 cm cuvets at 650 nm. The final protein concentration used for our studies was between 100 and 250 μg/ml.
Incubation in both binding assays was terminated using a Millipore filter system. The samples, all in triplicate, were rinsed three times with 2.5 ml ice cold assay buffer over glass fibre filters obtained from Schleicher & Schuell under a constant vacuum. Following separation and rinse the filters were placed into scintillation liquid (5 ml; Ultima Gold) and radioactivity retained on the filters was determined by using conventional liquid scintillation counter (Hewlett Packard, Liquid Scintillation Analyser). `Total binding` was the absolute amount of radioligand bound in the absence of any additives whereas `non-specific` binding was determined in the presence of a high concentration of competitor.
[^3 H]5,7-DCKA binding assay
Experiments were performed according to the methods modified from previous groups (Canton et al., 1991; Yoneda et al., 1993). Membranes were suspended and incubated in 10 mM Tris-HCl, pH 7.4. Incubation time was 45 min at 4° C. Non-specific binding of [^3 H]5,7-DCKA was defined by the addition of unlabeled glycine at 0.1 mM. The stop-solution contained 10 mM Tris-HCl and 10 mM magnesium sulphate, pH 7.4. Filtration was performed as rapidly as possible. Displacement experiments were performed with a fixed [^3 H]5,7-DCKA concentration of 10 nM. Test compounds were diluted in water or DMSO and added in at least 5 different concentrations.

[2] = molecular target: T2, NMDA receptor (Rattus norvegicus, UniProt P35439); experiment: Patch clamp, inward currents to NMDA in cultured superior colliculus neurones; format: cell-based; conditions: NMDA 200 μM, glycine 1 μM
T2 construct: endogenous in cells
Procedure: Cells were mechanically dissociated in 0.05% DNAase / 0.3% ovomucoid (Sigma) following a 15 minute pre-incubation with 0.66% trypsin / 0.1% DNAase (Sigma). The dissociated cells were then centrifuged at 18G for 10 minutes, resuspended in minimum essential medium (Gibco) and plated at a density of 200,000 cells cm onto poly-L-lysine (Sigma)-precoated plastic petri dishes (Falcon). The cells were nourished with NaHCO3 /HEPES-buffered minimum essential medium supplemented with 5% foetal calf serum and 5% horse serum (Gibco) and incubated at 37° C. with 5%CO2 at 95% humidity. The medium was exchanged completely following inhibition of further glial mitosis with cytosine-β-D-arabinofuranoside (20 μM Sigma) after about 7 days in vitro. Thereafter the medium was exchanged partially twice weekly. […] Moreover, the relatively small neurones (soma 15-20 μm .phi.) are ideally suited to minimise problems of buffered diffusion for concentration clamp experiments.
Patch clamp recordings were made from these neurones with polished glass electrodes (4-6 m.OMEGA.) in the whole cell mode at room temperature (20°-22° C.) with the aid of an EPC-7 amplifier (List). Test substances were applied by switching channels of a custom made fast superfusion system with a common outflow (10-20 ms exchange times). The contents of the intracellular solution were as follows (mM): CsCl (120), TEACl (20), EGTA (10), MgCl2 (1), CaCl2 (0.2), glucose (10), ATP (2), cAMP (0.25); pH was adjusted to 7.3 with CsOH or HCl. The extracellular solutions had the following basic composition (mM): NaCl (140), KCl (3), CaCl2 (0.2), glucose (10), HEPES (10), sucrose (4.5), tetrodotoxin (TTX 3*10-4). For most experiments glycine (1 μM) was present in all solutions. Experiments to test the glycine-dependence of the tricyclic "pyrido-phtalazin diones" were performed in the continuous presence of increasing concentrations of glycine (1-10 μM).
This effect was mediated at the glycineB site as evidenced by the parallel shift in the concentration-response curves in the presence of increasing glycine concentrations. Thus the Kbs of Mrz 2/502 as assessed according to the Cheng-Prusoff relationship were similar in glycine 1, 3 and 10 μM (80, 124 and 118 nM respectively). […] Choline derivatives had similar potencies to the free acids in vitro (Table14b).

[3] = molecular target: T3, NMDA receptor (Mus musculus, UniProt P35438); experiment: Maximal electroshock (MES)-induced tonic convulsions; format: in vivo; conditions: i.p., 15 min before induction; for ED50: mouse, ip, 0.25 h, read-out: MES ID50
T3 construct: from tissue; host or cells: living mice (albino Swiss males for NMDA and PTZ tests, NMR females for MES)
Procedure: (§1) To assess NMDA receptor antagonistic properties of the tested agents by assessing anticonvulsive effects. Additionally the role of organic acid transporters in the elimination from the brain of tested agents was assessed by using an inhibitor, Probenicid, on the duration of anticonvulsive activity.
(§2) Male albino Swiss mice (19-21 g) housed 10-15 per cage were used for the NMDA lethality test (Leander et al., 1988). For pentylenetetrazol (PTZ)-induced convulsions male albino Swiss mice (25-34 g.) housed 40 per cage (58×38×20 cm) were used while in the maximal electroshock (MES) and motor impairment tests NMR female mice (18-28 g) housed 5 per cage were employed. All animals were kept with water and food ad libittum under a 12-h light-dark cycle (light on at 6 a.m.), and at a controlled temperature (20°±0.5° C.). All experiments were performed between 10 a.m. and 5 p.m. Tested agents were injected 15 min. i.p before the induction of convulsions if not stated otherwise (see below). Mrz 2/502 was dissolved in saline added with NaOH. Most other agents were dissolved in the following solution: 0.606 g Tris; 5.0 g. glucose; 0.5 g. Tween 80; and 95 ml water. The choline and tetramethylammonium salts were dissolved in distilled water.
(§3) MES (100 Hz, 0.5 sec shock duration, 50 mA shock intensity, 0.9 ms impulse duration, Ugo Basile) was applied through corneal electrodes. The presence of tonic convulsions was scored (tonic extension of hind paws with minimum angle to the body of 90°). In an additional experiment mice were injected with Probenicid (200 mg/kg) 30 min before administration of the tested agents to assess the role of organic acid transport in elimination (duration of action). The aim was to obtain ED50 s for all parameters scored using the Litchfield Wilcoxon (1949) test for quantal dose responses.

[4] = molecular target: T2, NMDA receptor; experiment: Microelectrophoretic application of NMDA to spinal neurones in vivo; conditions: responses of single rat spinal neurones; for ED50: rat, iv, read-out: Microelectrophoretic NMDA ID50; for Microelectrophoretic NMDA ID50: i.v.
Procedure: (§4) The ability of these glycineB antagonists to act as NMDA receptor antagonists in vivo was assessed using i.v. administration against responses of single neurones in the rat spinal cord to microelectrophoretic application of AMPA and NMDA.

[5] = test system: AMPA; experiment: Microelectrophoretic application of AMPA to spinal neurones in vivo; conditions: i.v., responses of single rat spinal neurones
Procedure: as §4

[6] = molecular target: T3, NMDA receptor; experiment: NMDA-induced convulsions / lethality test; format: in vivo; conditions: ip, 0.25 h, i.p., 15 min before induction, read-out: NMDA ID50
Procedure: as §1, §2
In the NMDA-induced convulsions test in mice, a dose-response relationship for NMDA was first performed to determine the ED97 dose which was then used for testing of antagonistic properties. After injection of the ED97 dose of NMDA the animals were placed in a small cage (20×28×14 cm) and observed for 20 min. Death preceded by clonic convulsions and by tonic seizures was the pharmacological end-point.

[7] = molecular target: T3, NMDA receptor; experiment: Pentylenetetrazol (PTZ)-induced convulsions; format: in vivo; conditions: ip, 0.25 h, i.p., PTZ 90 mg/kg i.p., read-out: PTZ ID50
Procedure: as §1, §2
Pentylenetetrazol was injected at a dose of 90 mg/kg (i.p). The presence of general tonic convulsions was then scored for 30 min as this parameter is more sensitive to NMDA receptor antagonists than clonic convulsions. The pharmacological end-point was taken as the presence of tonus in the hind limbs with stretching.

[8] = test system: organic acid transport; experiment: Duration of anticonvulsive action with and without probenecid; format: in vivo, mouse; conditions: listed as 2/570
Procedure: as §1, §2, §3
Moreover it seems that choline salts have a longer duration of action. Probenecid injection prolonged considerably the duration of anticonvulsive action of all agents tested. For example the half lives of 2/514 and 2/570 were around 40 and 80 minutes respectively in the absence of probenicid. In the presence of probenicid the half lives were prolonged to around 180 and 210 minutes respectively. Thus, it seems that organic acids transport in the choroid plexus out of the brain plays an important role in the short duration of action of the compounds tested..

[9] = peak currents, read-out: Peak NMDA IC50
[10] = plateau (steady-state) currents, read-out: Plateau NMDA IC50

Row | Compound | IC50 [1] | IC50 [2, 9] | IC50 [2, 10] | ED50 [4] | Microelectrophoretic AMPA ID50 [5] | ED50 [3] | ED50 [6] | ED50 [7] | also measured
1 | O=c1[nH][nH]c(=O)c2nc3ccc(F)cc3cc12 [Mrz 2/572] | 1140 nM | 12400 nM | 3500 nM | > 16 mg/kg | > 16.0 mg/kg |  |  |  | MES ID50 ([3]; listed as 572, 15 min): > 100 mg/kg
2 | O=c1[nH][nH]c(=O)c2nc3ccccc3cc12 [Mrz 2/585] |  | 65900 nM | 19100 nM |  |  | > 100 mg/kg | 58.9 mg/kg | 59 mg/kg | 
3 | O=c1[nH]nc(O)c2c1cc1cc(Cl)c(Cl)cc1[n+]2[O-] [Mrz 2/518, 7,8-dichloro-4-hydroxy-1-oxo-1,2-dihydropyridazino-[4,5-b]-quinoline 5-oxide] | 650 nM | 3800 nM | 800 nM |  |  | > 60 mg/kg | > 100 mg/kg |  | 
4 | O=c1[nH]nc(O)c2c1cc1cc(Br)ccc1[n+]2[O-] [Mrz 2/570, 8-bromo-4-hydroxy-1-oxo-1,2-dihydropyridazino[4,5-b]-quinoline 5-oxide choline salt] |  | 600 nM | 100 nM | 4.5 mg/kg | > 16.0 mg/kg |  |  |  | MES ID50 ([3]; listed as 570, 15 min): 12.8 mg/kg; half life of anticonvulsive action ([8]; absence of probenecid): ~1.33 h; half life of anticonvulsive action ([8]; presence of probenecid 200 mg/kg, 30 min before): ~3.5 h
5 | O=c1[nH][nH]c(=O)c2nc3cc(Cl)c(Br)cc3cc12 [Mrz 2/539] |  | 5300 nM | 700 nM |  |  | > 60 mg/kg | > 100 mg/kg | > 100 mg/kg | 
6 | O=c1[nH][nH]c(=O)c2nc3ccc(Cl)cc3cc12 [Mrz 2/569] | 970 nM | 2000 nM | 500 nM | > 16 mg/kg | > 16.0 mg/kg |  |  |  | MES ID50 ([3]; listed as 569, 15 min): > 50 mg/kg
7 | O=c1[nH]nc(O)c2c1cc1cc(Cl)ccc1[n+]2[O-] [Mrz 2/576, 8-chloro-4-hydroxy-1-oxo-1,2-dihydropyridazino[4,5-b]-quinoline 5-oxide choline salt] | 450 nM | 1100 nM | 500 nM |  |  |  |  |  | MES ID50 ([3]; listed as 576, 15 min): 7.7 mg/kg; Microelectrophoretic NMDA ID50 ([4]; listed as 576): 2.8 mg/kg; Microelectrophoretic AMPA ID50 ([5]; listed as 576): > 16.0 mg/kg
8 | O=c1[nH][nH]c(=O)c2nc3cc(Br)c(Cl)cc3cc12 [Mrz 2/538] |  | 93900 nM | 2500 nM |  |  | > 60 mg/kg | 106 mg/kg | > 100 mg/kg | 
9 | O=c1[nH]nc(O)c2c1cc1cc(F)ccc1[n+]2[O-] [Mrz 2/571, 8-fluoro-4-hydroxy-1-oxo-1,2-dihydropyridazino[4,5-b]-quinoline 5-oxide choline salt] | 320 nM | 4900 nM | 1000 nM |  |  |  |  |  | MES ID50 ([3]; listed as 571, 15 min): 15.5 mg/kg; Microelectrophoretic NMDA ID50 ([4]; listed as 571): 4.7 mg/kg; Microelectrophoretic AMPA ID50 ([5]; listed as 571): 9.2 mg/kg
